Our source for the EC50 and inhibition values is US10350199B2, “3-(1h-pyrrolo[2,3-b]pyridin-2-yl)-1h-indazoles and therapeutic uses thereof” (Samumed, LLC, priority 2015, dated 2019).

What all share (type): cell-based
The test system of test [1] is SW480 colon cancer cells. The test is described as follows: Cell viability assay (CellTiter-Blue), SW480 cells, four days. The settings on record: Homo sapiens; for EC50: 96 h, SW480 cell viability, four days, CellTiter-Blue; for inhibition at 10 µM: SW480, read-out: percent inhibition at 10 μM. Here is the method:
Representative compounds were screened using the following assay procedure to assess the effect on cell viability as described below.
Approximately 2×10^3 SW480 colon cancer cells were seeded into each well and allowed to incubate in the presence or absence of compound for four days at 37° C./5% CO2. Eight replicates of DMSO-treated cells served as controls and cells treated with compound were performed in duplicate.
After incubation, 20 μL of CellTiter-Blue (Promega) was added to each well allowed to incubate for approximately 3 hours. This reagent was a buffered solution which contains resazurin, metabolically active cells were able to reduce rezarurin (blue) into resorufin (pink) which was highly fluorescent. This measured fluorescence was used as a readout for cell viability.

For test [2], the system named is Wnt activity (Sp5-Luc reporter, SW480 colon carcinoma cells). The test is described as follows: Wnt activity screening assay, Sp5-Luc reporter gene in SW480 cells. The settings on record: Homo sapiens; for inhibition at 10 µM: SW480, read-out: percent inhibition at 10 μM; for EC50: Sp5-Luc reporter, SW480 cells, overnight incubation. An excerpt:
The screening assay for Wnt activity is described as follows. Reporter cell lines can be generated by stably transducing cancer cell lines (e.g., colon cancer) or primary cells (e.g., IEC-6 intestinal cells) with a lentiviral construct that includes a Wnt-responsive promoter driving expression of the firefly luciferase gene.
SW480 colon carcinoma cells were transduced with a lentiviral vector expressing luciferase with a human Sp5 promoter consisting of a sequence of eight TCF/LEF binding sites. SW480 cells stably expressing the Sp5-Luc reporter gene and a hygromycin resistance gene were selected by treatment with 150 μg/mL of hygromycin for 7 days. These stably transduced SW480 cells were expanded in cell culture and used for all further screening activities. […] For Sp5-Luc reporter gene assays, the cells were plated at 4,000 cells/well in 384-well plates with medium containing 1% fetal bovine serum and incubated overnight at 37° C. and 5% CO2. Following incubation, 20 μl of BrightGlo luminescence reagent (Promega) was added to each well of the 384-well assay plates. The plates were placed on an orbital shaker for 2 min and then luminescence was quantified using the Envision (Perkin Elmer) plate reader. Readings were normalized to DMSO only treated cells, and normalized activities were utilized for EC50 calculations using the dose-response log (inhibitor) vs. response -variable slope (four parameters) nonlinear regression feature available in GraphPad Prism 5.0 (or Dotmatics).

Test [3] concerns IL-6 (THP-1 human monocyte cell line). Briefly: IL-6 inhibition in LPS-stimulated THP-1 cells (HTRF). The settings on record: for EC50: IL-6 inhibition, LPS-stimulated THP-1 cells, HTRF; for inhibition at 10 µM: THP-1, read-out: percentage in parentheses beside EC50 >10 (IL-6 inhibition). How it is done:
THP-1 cells were cultured in basal media with 1% FBS for 24 hours before the start of the assay. […] THP-1 cells were plated at 5000 cells/well in the 384-well plates and incubated at 37° C. for 2 h. 500 ng/mL of LPS was added after 2 hours and cells were incubated for another 22 hours at 37° C. Plates were spun in a centrifuge for 1 minute at […] and a mixture of anti-IL6 XL665, and anti-IL6 Cryptate diluted in reconstitution buffer (Cisbio Inc.) was added to each well. Following incubation for 3 hrs at room temperature, Homogeneous Time-Resolved Fluorescence (HTRF) was measured using the Envision (Perkin Elmer) at 665 nm and […]. The ratio of fluorescence at 665 nm to 620 nm was used as a readout for IL6 quantification. All samples were processed in duplicate. Readings were normalized to DMSO treated cells and normalized activities were utilized for EC50 calculations using the dose-response log (inhibitor) vs. response -variable slope (four parameters) nonlinear regression feature available in GraphPad Prism 5.0 (or Dotmatics).

Test [4] has as its system primary human fibroblasts derived from IPF patients (LL29 cells) treated with TGF-β1. The test is described as follows: Inhibition of the fibrotic process: αSMA staining in TGF-β1 treated LL29 fibroblasts. The settings on record: Fibroblast; for EC50: 96 h, LL29 cells, TGF-β1 20 ng/mL, 4 days, % αSMA positive cells; for inhibition at 10 µM: read-out: percent inhibition at 10 μM. How it is done:
Representative compounds were screened using primary human fibroblasts (derived from IPF patients) treated with TGF-β1 to determine their ability to inhibit the fibrotic process.
LL29 cells are plated at 1,500 cells/well in 80 μL/well F12 medium supplemented with 1% Fetal Bovine Serum. […] Wells treated with TGF-β1 and containing DMSO were used as controls. […] Following incubation for 4 days, SYTOX green nucleic acid stain (Life Technologies [Thermo Fisher Scientific]) was added to the wells at a final concentration of 1 μM and incubated at room temperature for 30 min.

For `Fc1cccc(-c2ccnc3[nH]c(-c4n[nH]c5ccc(-c6ccncc6)cc45)cc23)c1` [Compound 18, 3-(4-(3-Fluorophenyl)-1H-pyrrolo[2,3-b]pyridin-2-yl)-5-(pyridin-4-yl)-1H-indazole], the EC50 in test [1] is above 10 µM; in test [2], above 10 µM; in test [3], 0.995 µM; in test [4], above 10 µM. The inhibition at 10 µM in test [1] was 16.2%; in test [2], 18%; in test [4] it was 33.6%.

As for `O=C(Nc1cncc(-c2ccc3[nH]nc(-c4cc5c(-c6cccc(F)c6)ccnc5[nH]4)c3c2)c1)C1CC1` [Compound 20, N-(5-(3-(4-(3-Fluorophenyl)-1H-pyrrolo[2,3-b]pyridin-2-yl)-1H-indazol-5-yl)pyridin-3-yl)cyclopropanecarboxamide], the EC50 in test [1] is 1.06 µM; in test [2], 0.035 µM; in test [3] it was above 10 µM; in test [4], 7.73 µM. Moreover, the inhibition at 10 µM in test [3] was found to be 34.5%.

Take `Fc1cccc(-c2ccnc3[nH]c(-c4n[nH]c5ccc(-c6cncc(CN7CCC(F)(F)C7)c6)cc45)cc23)c1` [Compound 26, 5-(5-((3,3-Difluoropyrrolidin-1-yl)methyl)pyridin-3-yl)-3-(4-(3-fluorophenyl)-1H-pyrrolo[2,3-b]pyridin-2-yl)-1H-indazole]: the EC50 was above 10 µM in test [1], above 10 µM in test [2], 0.285 µM in test [3] and 1.96 µM in test [4]. Also, the results for the inhibition at 10 µM in test [1] and in test [2] were 40.6% and 49%, respectively.

In the case of `Fc1cccc(-c2ccnc3[nH]c(-c4n[nH]c5ccc(-c6ccccn6)cc45)cc23)c1` [Compound 28, 3-(4-(3-Fluorophenyl)-1H-pyrrolo[2,3-b]pyridin-2-yl)-5-(pyridin-2-yl)-1H-indazole], the EC50 in test [1], in test [2], in test [3] and in test [4] was above 10 µM in each case. For the same compound, the inhibition at 10 µM in test [1] amounted to 12.9%; in test [2] it was 8.5%; in test [3] it was 21%; in test [4], 12%.

As to `CC(C)CC(=O)Nc1cncc(-c2ccc3[nH]nc(-c4cc5c(-c6ccc(F)cc6)ccnc5[nH]4)c3c2)c1` [Compound 30, N-(5-(3-(4-(4-Fluorophenyl)-1H-pyrrolo[2,3-b]pyridin-2-yl)-1H-indazol-5-yl)pyridin-3-yl)-3-methylbutanamide], the half-maximal effective concentration (EC50) in test [1], in test [2], in test [3] and in test [4] was above 10 µM in each case. In addition, the inhibition at 10 µM in test [1] stood at 14.9%; in test [2], 13.6%; in test [3], 25.3%; in test [4], 20.2%.

Turning to `CC(C)(C)C(=O)Nc1cncc(-c2ccc3[nH]nc(-c4cc5c(-c6ccc(F)cc6)ccnc5[nH]4)c3c2)c1` [Compound 36, N-(5-(3-(4-(4-Fluorophenyl)-1H-pyrrolo[2,3-b]pyridin-2-yl)-1H-indazol-5-yl)pyridin-3-yl)pivalamide], the EC50 in test [1], in test [2], in test [3] and in test [4] was above 10 µM in each case. For the same compound, the inhibition at 10 µM in test [1] turned out to be 33.1%; in test [2], 11.7%; in test [3] it was 19.3%; in test [4] it was 0%.

Consider `O=C(Nc1cncc(-c2ccc3[nH]nc(-c4cc5c(-c6ccc(F)cc6)ccnc5[nH]4)c3c2)c1)c1ccccc1` [Compound 39, N-(5-(3-(4-(4-Fluorophenyl)-1H-pyrrolo[2,3-b]pyridin-2-yl)-1H-indazol-5-yl)pyridin-3-yl)benzamide], for which the EC50 in test [1] was above 10 µM; in test [2], above 10 µM; in test [3], above 10 µM; in test [4], 4.88 µM. Besides, the inhibition at 10 µM in test [1] came to 24.2%; in test [2], 0%; in test [3], 28.4%.

Consider `CCCC(=O)Nc1cncc(-c2ccc3[nH]nc(-c4cc5c(-c6ccc(F)cc6)ccnc5[nH]4)c3c2)c1` [Compound 45, N-(5-(3-(4-(4-Fluorophenyl)-1H-pyrrolo[2,3-b]pyridin-2-yl)-1H-indazol-5-yl)pyridin-3-yl)butyramide], for which the EC50 was above 10 µM in test [1], above 10 µM in test [2], above 10 µM in test [3] and 5.24 µM in test [4]. For the same compound, the inhibition at 10 µM in test [1] came to 30.7%; in test [2] it was 11%; in test [3], 25.8%.

`O=C(Nc1cncc(-c2ccc3[nH]nc(-c4cc5c(-c6ccc(F)cc6)ccnc5[nH]4)c3c2)c1)C1CCC1` [Compound 49, N-(5-(3-(4-(4-Fluorophenyl)-1H-pyrrolo[2,3-b]pyridin-2-yl)-1H-indazol-5-yl)pyridin-3-yl)cyclobutanecarboxamide]: the EC50 in test [1], in test [2], in test [3] and in test [4] was above 10 µM in each case. Besides, the inhibition at 10 µM in test [1] is 11.8%; in test [2], 10.6%; in test [3], 29.6%; in test [4] it was 3.2%.

Consider `CC(C)C(=O)Nc1cncc(-c2ccc3[nH]nc(-c4cc5c(-c6ccccc6F)ccnc5[nH]4)c3c2)c1` [Compound 65, N-(5-(3-(4-(2-Fluorophenyl)-1H-pyrrolo[2,3-b]pyridin-2-yl)-1H-indazol-5-yl)pyridin-3-yl)isobutyramide], for which the EC50 in test [1], in test [2], in test [3] and in test [4] was above 10 µM each time. Also, the inhibition at 10 µM was found to be 10.8% in test [1], 30.5% in test [2], 34.9% in test [3] and 11.7% in test [4].

With `CC(C)Nc1cncc(-c2ccc3[nH]nc(-c4cc5c(-c6ccccc6F)ccnc5[nH]4)c3c2)c1` [Compound 68, 5-(3-(4-(2-Fluorophenyl)-1H-pyrrolo[2,3-b]pyridin-2-yl)-1H-indazol-5-yl)-N-isopropylpyridin-3-amine], the EC50 in test [1] is above 10 µM; in test [2] it was above 10 µM; in test [3], 0.384 µM; in test [4], above 10 µM. In addition, the values for the inhibition at 10 µM in test [1], in test [2] and in test [4] were 10.9%, 18.7% and 0%, respectively.

Regarding `CC(C)CC(=O)Nc1cncc(-c2ccc3[nH]nc(-c4cc5c(-c6ccsc6)ccnc5[nH]4)c3c2)c1` [Compound 282, 3-Methyl-N-(5-(3-(4-(thiophen-3-yl)-1H-pyrrolo[2,3-b]pyridin-2-yl)-1H-indazol-5-yl)pyridin-3-yl)butanamide], the EC50 in test [1] is 6.94 µM; in test [2], 2.1 µM; in test [3] it was 0.971 µM.

As for `COc1cncc(-c2ccc3[nH]nc(-c4cc5c(-c6ccco6)ccnc5[nH]4)c3c2)c1` [Compound 991, 3-(4-(Furan-2-yl)-1H-pyrrolo[2,3-b]pyridin-2-yl)-5-(5-methoxypyridin-3-yl)-1H-indazole], the EC50 was above 10 µM in test [1], above 10 µM in test [2] and 0.012 µM in test [3]. The inhibition at 10 µM in test [1] came out at 0%; in test [2] it was 7.9%.
